Results as given in patent publication US11034650B2, “Compounds useful for treating a Mannheimia haemolytica or Histophilus somni infection” (Intervet Inc., priority 2016, dated 2021).
Converted amounts (≈) assume the structure as drawn.

How the values were obtained:
Type in all cases: cell-based
[1] = system: Mannheimia haemolytica MH 10720 (154, BRD field isolate); test: MIC, broth-microdilution (CLSI VET01-A4), strain MH 10720; details: Mannheimia haemolytica strain MH 10720, broth-microdilution; unit assumed
Protocol: (§1) For example, representative compounds were tested against ***, Mannheimia haemolytica and Pasteurella multocida, using the conventional broth-dilution assay.
(§2) The Minimum inhibitory concentrations (MIC) of compounds according to the invention for a number of veterinary bacterial pathogens were determined by the broth-microdilution method according to CLSI document VET01-A4.
(§3) Microdilution trays containing a doubling dilution series of the test compound were used for the tests. The MIC results were interpreted according to the CLSI documents VET01-S3. The lowest concentration of compound at which no visible growth (i.e. no turbidity) detected by the unaided eye was recorded as the MIC.

[2] = system: Mannheimia haemolytica MH 13065 (XB0446-6003.9, BRD field isolate); test: MIC, broth-microdilution (CLSI VET01-A4), strain MH 13065; details: Mannheimia haemolytica strain MH 13065, broth-microdilution; unit assumed
Protocol: as §1, §2, §3

[3] = system: Pasteurella multocida PM 10775 (080130003051, BRD field isolate); test: MIC, broth-microdilution (CLSI VET01-A4), strain PM 10775; details: Pasteurella multocida strain PM 10775, broth-microdilution; unit assumed
Protocol: as §1, §2, §3

[4] = system: Mannheimia haemolytica MH 12587 (1071, BRD field isolate, macrolide-resistance: erm+, E+); test: MIC, broth-microdilution (CLSI VET01-A4), strain MH 12587; details: Mannheimia haemolytica strain MH 12587, broth-microdilution; unit assumed
Protocol: as §1, §2, §3

[5] = system: Mannheimia haemolytica MH 6357 (M7/2, reference strain, cattle infection strain); test: MIC, broth-microdilution (CLSI VET01-A4), strain MH 6357; details: Mannheimia haemolytica strain MH 6357, broth-microdilution; unit assumed
Protocol: as §1, §2, §3

[6] = system: Mannheimia haemolytica MH 6374 (ATCC 33396, reference strain); test: MIC, broth-microdilution (CLSI VET01-A4), strain MH 6374; details: Mannheimia haemolytica strain MH 6374, broth-microdilution; unit assumed
Protocol: as §1, §2, §3

[7] = system: Mannheimia haemolytica MH 13093 (XB0472-6014.1, BRD field isolate); test: MIC, broth-microdilution (CLSI VET01-A4), strain MH 13093; details: Mannheimia haemolytica strain MH 13093, broth-microdilution; unit assumed
Protocol: as §1, §2, §3

[8] = system: Pasteurella multocida PM 6267 (P 2225 (L386), reference strain, mouse infection strain); test: MIC, broth-microdilution (CLSI VET01-A4), strain PM 6267; details: Pasteurella multocida strain PM 6267, broth-microdilution; unit assumed
Protocol: as §1, §2, §3

[9] = system: Pasteurella multocida PM 12080 (IV102277-0093, BRD field isolate); test: MIC, broth-microdilution (CLSI VET01-A4), strain PM 12080; details: Pasteurella multocida strain PM 12080, broth-microdilution; unit assumed
Protocol: as §1, §2, §3

Row | Compound | MIC MH 10720 [1] [µg/mL] | MIC MH 13065 [2] [µg/mL] | MIC PM 10775 [3] [µg/mL] | MIC MH 12587 [4] [µg/mL] | MIC MH 6357 [5] [µg/mL] | MIC MH 6374 [6] [µg/mL] | MIC MH 13093 [7] [µg/mL] | MIC PM 6267 [8] [µg/mL] | MIC PM 12080 [9] [µg/mL]
1 | Cc1ccc(CNCc2ccc(C#Cc3ccc(C(=O)N[C@H](C(=O)NO)C(C)C)cc3)cc2)cc1C [Compound 111] | 0.8 (≈ 1.65 µM) | 3.1 (≈ 6.41 µM) | 0.4 (≈ 0.827 µM) | 12.5 (≈ 25.8 µM) | 3.1 (≈ 6.41 µM) | 3.1 (≈ 6.41 µM) | 3.1 (≈ 6.41 µM) | 0.8 (≈ 1.65 µM) | 1.6 (≈ 3.31 µM)
2 | O=C(N[C@@H](CO)C(=O)NO)c1ccc(C#Cc2ccc(CNCc3ccc(Cl)cc3)cc2)cc1 [Compound 87] | 1.6 (≈ 3.35 µM) | 3.1 (≈ 6.49 µM) | ≤ 0.1 | 6.3 (≈ 13.2 µM) | 3.1 (≈ 6.49 µM) | 0.8 (≈ 1.67 µM) | 3.1 (≈ 6.49 µM) | 0.2 (≈ 0.418 µM) | 1.6 (≈ 3.35 µM)
3 | O=C(N[C@@H](CO)C(=O)NO)c1ccc(C#Cc2ccc(CN3CCC(c4ccccc4)CC3)cc2)cc1 [Compound 80] | 0.8 (≈ 1.61 µM) | 1.6 (≈ 3.22 µM) | ≤ 0.1 | 3.1 (≈ 6.23 µM) | 1.6 (≈ 3.22 µM) | 1.6 (≈ 3.22 µM) | 6.3 (≈ 12.7 µM) | ≤ 0.1 | 0.8 (≈ 1.61 µM)
4 | O=C(N[C@@H](CO)C(=O)NO)c1ccc(C#Cc2ccc(CN3CCS(=O)(=O)CC3)cc2)cc1 [Compound 78] | 3.1 (≈ 6.57 µM) | 6.3 (≈ 13.4 µM) | ≤ 0.1 | 12.5 (≈ 26.5 µM) | 6.3 (≈ 13.4 µM) | 6.3 (≈ 13.4 µM) | 6.3 (≈ 13.4 µM) | ≤ 0.1 | 0.8 (≈ 1.7 µM)
5 | CC[C@H](C)[C@H](NC(=O)c1ccc(C#Cc2ccc(CNCC#N)cc2)cc1)C(=O)NO [Compound 192] | 0.2 (≈ 0.478 µM) | 0.8 (≈ 1.91 µM) | ≤ 0.1 | 3.1 (≈ 7.41 µM) | 0.8 (≈ 1.91 µM) | 1.6 (≈ 3.82 µM) | 0.8 (≈ 1.91 µM) | ≤ 0.1 | ≤ 0.1
6 | C=CCNCc1ccc(C#Cc2ccc(C(=O)N[C@@H](CO)C(=O)NO)cc2)cc1 [Compound 73] | 3.1 (≈ 7.88 µM) | 3.1 (≈ 7.88 µM) | ≤ 0.1 | 6.3 (≈ 16 µM) | 3.1 (≈ 7.88 µM) | 3.1 (≈ 7.88 µM) | 3.1 (≈ 7.88 µM) | 0.4 (≈ 1.02 µM) | 1.6 (≈ 4.07 µM)
7 | CC(C)(C(NC(=O)c1ccc(C#Cc2ccc(CNC3CC3)cc2)cc1)C(=O)NO)[N+](=O)[O-] (racemic) [Compound 218] | ≤ 0.1 | 0.4 (≈ 0.888 µM) |  | 0.8 (≈ 1.78 µM) | 0.4 (≈ 0.888 µM) | 0.4 (≈ 0.888 µM) | 0.4 (≈ 0.888 µM) | 0.4 (≈ 0.888 µM) | ≤ 0.1
8 | CC(C)(C)C1CCN(Cc2ccc(C#Cc3ccc(C(=O)N[C@@H](CO)C(=O)NO)cc3)cc2)CC1 [Compound 79] | 3.1 (≈ 6.49 µM) | 12.5 (≈ 26.2 µM) | ≤ 0.1 | 25 (≈ 52.3 µM) | 12.5 (≈ 26.2 µM) | 25 (≈ 52.3 µM) | 25 (≈ 52.3 µM) | 0.4 (≈ 0.838 µM) | 1.6 (≈ 3.35 µM)
9 | C=CCNCc1ccc(C#Cc2ccc(C(=O)N[C@H](C(=O)NO)[C@@H](C)CC)cc2)cc1 [Compound 113] | 0.4 (≈ 0.953 µM) | 1.6 (≈ 3.81 µM) | ≤ 0.1 | 3.1 (≈ 7.39 µM) | 3.1 (≈ 7.39 µM) | 0.8 (≈ 1.91 µM) | 3.1 (≈ 7.39 µM) | 0.4 (≈ 0.953 µM) | 0.8 (≈ 1.91 µM)
10 | CC(C)[C@H](NC(=O)c1ccc(C#Cc2ccc(CNCc3ccc(Cl)cc3)cc2)cc1)C(=O)NO [Compound 106] | 0.2 (≈ 0.408 µM) | 0.8 (≈ 1.63 µM) | ≤ 0.1 | 1.6 (≈ 3.27 µM) | 0.8 (≈ 1.63 µM) | 0.8 (≈ 1.63 µM) | 1.6 (≈ 3.27 µM) | 0.2 (≈ 0.408 µM) | 0.8 (≈ 1.63 µM)
11 | CC[C@H](C)[C@H](NC(=O)c1ccc(C#Cc2ccc(CN3CCOCC3)cc2)cc1)C(=O)NO [Compound 119] | 0.4 (≈ 0.89 µM) | 1.6 (≈ 3.56 µM) | ≤ 0.1 | 3.1 (≈ 6.9 µM) | 1.6 (≈ 3.56 µM) | 1.6 (≈ 3.56 µM) | 3.1 (≈ 6.9 µM) | ≤ 0.1 | ≤ 0.1
